# Measurements reported in patent US20020169101A1, “Treatment of sexual dysfunction” (priority 1999, published 2002).
# Where two headings read alike, the source gives them in different places.
# Legend:
# [1] = target: T1, human NMB receptor (BB1) (Homo sapiens, UniProt P28336); assay: BB1 binding assay ([125I][Tyr4]bombesin displacement, CHO-K1 membranes)
# T1 construct: expressed in transfected cells; membranes prepared from the cells
# Outline: (§1)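 Membranes from CHO-K1 cells stably expressing human NMB (BB1) or GRP (BB2) receptors, in 50 mM Tris-HCl pH 7.4 with BSA and protease inhibitors, incubated with [125I][Tyr4]bombesin (<0.1 nM) for 60 min (BB1) or 90 min (BB2). Nonspecific binding defined with 1 μM bombesin; filtration and gamma counting; IC50 converted to Ki by Cheng-Prusoff.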
# [2] = target: T2, human GRP receptor (BB2) (Homo sapiens, UniProt P30550); assay: BB2 binding assay ([125I][Tyr4]bombesin displacement, CHO-K1 membranes)
# T2 construct: expressed in transfected cells; membranes prepared from the cells
# Outline: as §1
# [3] = Table 3, N-acyl derivatives of Intermediate III-7
# [4] = second 'TABLE 4', N-terminal urethane derivatives of Intermediate III-7
# T2 sequence (P30550 whole entry): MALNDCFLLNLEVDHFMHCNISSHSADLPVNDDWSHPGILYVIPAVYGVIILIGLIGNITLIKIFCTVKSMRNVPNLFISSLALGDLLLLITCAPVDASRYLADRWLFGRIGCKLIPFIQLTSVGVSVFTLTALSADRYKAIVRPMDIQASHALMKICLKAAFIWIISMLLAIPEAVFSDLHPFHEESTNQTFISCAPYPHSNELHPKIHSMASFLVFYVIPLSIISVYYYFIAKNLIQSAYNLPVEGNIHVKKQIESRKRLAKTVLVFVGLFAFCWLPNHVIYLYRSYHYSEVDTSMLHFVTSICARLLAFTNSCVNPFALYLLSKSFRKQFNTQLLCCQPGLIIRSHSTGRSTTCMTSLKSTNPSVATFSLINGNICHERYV
# T1 sequence (P28336 whole entry): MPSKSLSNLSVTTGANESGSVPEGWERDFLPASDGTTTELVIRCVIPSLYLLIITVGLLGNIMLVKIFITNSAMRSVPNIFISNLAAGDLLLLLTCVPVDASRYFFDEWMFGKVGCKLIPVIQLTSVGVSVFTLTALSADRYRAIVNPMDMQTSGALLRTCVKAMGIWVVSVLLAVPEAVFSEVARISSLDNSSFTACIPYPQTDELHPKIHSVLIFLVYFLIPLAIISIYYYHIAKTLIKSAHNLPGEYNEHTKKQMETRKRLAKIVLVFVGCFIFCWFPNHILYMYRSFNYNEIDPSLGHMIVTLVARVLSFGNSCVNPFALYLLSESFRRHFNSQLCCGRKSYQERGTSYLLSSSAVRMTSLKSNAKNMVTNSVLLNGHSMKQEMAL
SMILES,"IC50 [1, 3] [µM]","IC50 [2, 3] [µM]","IC50 [1, 4] [µM]","IC50 [2, 4] [µM]",other results
COc1ccc(C2(CNC(=O)[C@](C)(Cc3c[nH]c4ccccc34)Nc3nc(-c4ccc([N+](=O)[O-])cc4)cs3)CCCCC2)nc1 [Example 16],,,,,"Ki ([1]; Table 1, human NMB receptor binding affinity, Ki from IC50 by Cheng-Prusoff, read-out: NMB Ki): 0.015 µM; melting point: 110 to 114 °C"
"Cc1ccsc1C(=O)N[C@@](C)(Cc1c[nH]c2ccccc12)C(=O)NCC1(c2ccccn2)CCCCC1 [Example 74, 3-Methyl-thiophene-2-carboxylic acid {(S)-2-(1H-indol-3-yl)-1-methyl-1-[(1-pyridin-2-yl-cyclohexylmethyl)-carbamoyl]-ethyl}-amide]",0.744,> 10,,,
"C[C@@](Cc1c[nH]c2ccccc12)(NC(=O)c1ccc(S(C)(=O)=O)cc1)C(=O)NCC1(c2ccccn2)CCCCC1 [Example 37, N—{(S)-2-(1H-Indol-3-yl)-1-methyl-1-[(1-pyridin-2-yl-cyclohexylmethyl)-carbamoyl]-ethyl}-4-methanesulfonyl-benzamide]",2.27,> 10,,,
"C[C@@](Cc1c[nH]c2ccccc12)(NC(=O)OCc1ccc(C(F)(F)F)cc1)C(=O)NCC1(c2ccccn2)CCCCC1 [Example 101, {(S)-2-(1H-Indol-3-yl)-1-methyl-1-[(1-pyridin-2-yl-cyclohexylmethyl)-carbamoyl]-ethyl}-carbamic acid 4-trifluoromethyl-benzyl ester]",,,1.1,> 10,
"C[C@@](Cc1c[nH]c2ccccc12)(NC(=O)OCc1ccccc1F)C(=O)NCC1(c2ccccn2)CCCCC1 [Example 94, {(S)-2-(1H-Indol-3-yl)-1-methyl-1-[(1-pyridin-2-yl-cyclohexylmethyl)-carbamoyl]-ethyl}-carbamic acid 2-fluoro-benzyl ester]",,,0.923,> 10,
"C[C@@](Cc1c[nH]c2ccccc12)(NC(=O)c1cccc(Cl)c1)C(=O)NCC1(c2ccccn2)CCCCC1 [Example 39, 3-Chloro-N—{(S)-2-(1H-indol-3-yl)-1-methyl-1-[(1-pyridin-2-yl-cyclohexyl-methyl)-carbamoyl]-ethyl}-benzamide]",1.27,> 10,,,
"C[C@@](Cc1c[nH]c2ccccc12)(NC(=O)Cc1ccsc1)C(=O)NCC1(c2ccccn2)CCCCC1 [Example 56, (S)-3-(1H-Indol-3-yl)-2-methyl-N-(1-pyridin-2-yl-cyclohexylmethyl)-2-(2-thiophen-3-yl-ethanoylamino)-propionamide]",1.44,> 10,,,
"COc1ccc(COC(=O)N[C@@](C)(Cc2c[nH]c3ccccc23)C(=O)NCC2(c3ccccn3)CCCCC2)cc1OC [Example 88, {(S)-2-(1H-Indol-3-yl)-1-methyl-1-[(1-pyridin-2-yl-cyclohexylmethyl)-carbamoyl]-ethyl}-carbamic acid 3,4-dimethoxy-benzyl ester]",,,1.76,> 10,
"C[C@@](Cc1c[nH]c2ccccc12)(NC(=O)OCc1cccc(C#N)c1)C(=O)NCC1(c2ccccn2)CCCCC1 [Example 103, {(S)-2-(1H-Indol-3-yl)-1-methyl-1-[(1-pyridin-2-yl-cyclohexylmethyl)-carbamoyl]-ethyl}-carbamic acid 3-cyano-benzyl ester]",,,0.085,> 10,
"C[C@@](Cc1c[nH]c2ccccc12)(NC(=O)c1ccsc1)C(=O)NCC1(c2ccccn2)CCCCC1 [Example 65, Thiophene-3-carboxylic acid {(S)-2-(1H-indol-3-yl)-1-methyl-1-[(1-pyridin-2-yl-cyclohexylmethyl)-carbamoyl]-ethyl}-amide]",2.2,> 10,,,
Cc1ccc(S(=O)(=O)N[C@@](C)(Cc2c[nH]c3ccccc23)C(=O)NCC2(c3ccccn3)CCCCC2)cc1Cl [Example 158],,,,,IC50 [1]: 0.299 µM; IC50 [2]: 3.94 µM
"COc1ccc(COC(=O)N[C@@](C)(Cc2c[nH]c3ccccc23)C(=O)NCC2(c3ccccn3)CCCCC2)cc1 [Example 92, {(S)-2-(1H-Indol-3-yl)-1-methyl-1-[(1-pyridin-2-yl-cyclohexylmethyl)-carbamoyl]-ethyl}-carbamic acid 4-methoxy-benzyl ester]",,,1.61,> 10,
"C[C@@](Cc1c[nH]c2ccccc12)(NS(=O)(=O)c1ccccc1Cl)C(=O)NCC1(c2ccccn2)CCCCC1 [Example 113, (S)-2-(2-chloro-benzenesulfonylamino)-3-(1H-indol-3-yl)-2-methyl-N-(1-pyridin-2-yl-cyclohexylmethyl)-propionamide]",,,,,IC50 [1]: 0.257 µM; IC50 [2]: > 10 µM
"C[C@@](Cc1c[nH]c2ccccc12)(NC(=O)c1ccc([N+](=O)[O-])cc1)C(=O)NCC1(c2ccccn2)CCCCC1 [Example 36, N—{(S)-2-(1H-Indol-3-yl)-1-methyl-1-[(1-pyridin-2-yl-cyclohexylmethyl)-carbamoyl]-ethyl}-4-nitro-benzamide]",0.343,> 10,,,
COc1cccc(S(=O)(=O)N[C@@](C)(Cc2c[nH]c3ccccc23)C(=O)NCC2(c3ccccn3)CCCCC2)c1 [Example 145],,,,,IC50 [1]: 0.295 µM; IC50 [2]: 3.69 µM
"C[C@@](Cc1c[nH]c2ccccc12)(NC(=O)OCc1cccc(Cl)c1Cl)C(=O)NCC1(c2ccccn2)CCCCC1 [Example 109, {(S)-2-(1H-Indol-3-yl)-1-methyl-1-[(1-pyridin-2-yl-cyclohexylmethyl)-carbamoyl]-ethyl}-carbamic acid 2,3-dichloro-benzyl ester]",,,0.152,> 10,
"COc1ccc(C(=O)N[C@@](C)(Cc2c[nH]c3ccccc23)C(=O)NCC2(c3ccccn3)CCCCC2)cc1 [Example 35, N—{(S)-2-(1H-Indol-3-yl)-1-methyl-1-[(1-pyridin-2-yl-cyclohexylmethyl)-carbamoyl]-ethyl}-4-methoxy-benzamide]",2.88,> 10,,,
"C[C@@](Cc1c[nH]c2ccccc12)(NS(=O)(=O)c1ccccc1-c1ccccc1)C(=O)NCC1(c2ccccn2)CCCCC1 [Example 154, (S)-2-(biphenyl-2-sulfonylamino)-3-(1H-indol-3-yl)-2-methyl-N-(1-pyridin-2-yl-cyclohexylmethyl)-propionamide]",,,,,IC50 [1]: 0.166 µM; IC50 [2]: > 10 µM
"C[C@@](Cc1c[nH]c2ccccc12)(NC(=O)c1ccc2ncsc2c1)C(=O)NCC1(c2ccccn2)CCCCC1 [Example 72, Benzothiazole-6-carboxylic acid {(S)-2-(1H-indol-3-yl)-1-methyl-1-[(1-pyridin-2-yl-cyclohexylmethyl)-carbamoyl]-ethyl}-amide]",0.897,1.49,,,
"C[C@@](Cc1c[nH]c2ccccc12)(NC(=O)c1cccs1)C(=O)NCC1(c2ccccn2)CCCCC1 [Example 64, Thiophene-2-carboxylic acid {(S)-2-(1H-indol-3-yl)-1-methyl-1-[(1-pyridin-2-yl-cyclohexylmethyl)-carbamoyl]-ethyl}-amide]",1.44,> 10,,,
C[C@@](Cc1c[nH]c2ccccc12)(NS(=O)(=O)c1cccc(F)c1)C(=O)NCC1(c2ccccn2)CCCCC1 [Example 126],,,,,IC50 [1]: 0.407 µM; IC50 [2]: 2.76 µM
"C[C@@](Cc1c[nH]c2ccccc12)(NC(=O)c1ccc2cc[nH]c2c1)C(=O)NCC1(c2ccccn2)CCCCC1 [Example 66, 1H-Indole-6-carboxylic acid {(S)-2-(1H-indol-3-yl)-1-methyl-1-[(1-pyridin-2-yl-cyclohexylmethyl)-carbamoyl]-ethyl}-amide]",1.6,> 10,,,
"C[C@@](Cc1c[nH]c2ccccc12)(NC(=O)OCc1ccc2ccccc2c1)C(=O)NCC1(c2ccccn2)CCCCC1 [Example 89, {(S)-2-(1H-Indol-3-yl)-1-methyl-1-[(1-pyridin-2-yl-cyclohexylmethyl)-carbamoyl]-ethyl}-carbamic acid naphthalen-2-ylmethyl ester]",,,1,> 10,
"C[C@@](Cc1c[nH]c2ccccc12)(NC(=O)OCc1cccc([N+](=O)[O-])c1)C(=O)NCC1(c2ccccn2)CCCCC1 [Example 99, {(S)-2-(1H-Indol-3-yl)-1-methyl-1-[(1-pyridin-2-yl-cyclohexylmethyl)-carbamoyl]-ethyl}-carbamic acid 3-nitro-benzyl ester]",,,0.017,0.612,
"Cc1cccc(C(=O)N[C@@](C)(Cc2c[nH]c3ccccc23)C(=O)NCC2(c3ccccn3)CCCCC2)c1 [Example 43, N—{(S)-2-(1H-Indol-3-yl)-1-methyl-1-[(1-pyridin-2-yl-cyclohexylmethyl)-carbamoyl]-ethyl}-3-methyl-benzamide]",2.35,> 10,,,
C[C@@](Cc1c[nH]c2ccccc12)(NS(=O)(=O)c1cccc(Cl)c1)C(=O)NCC1(c2ccccn2)CCCCC1 [Example 130],,,,,IC50 [1]: 0.331 µM; IC50 [2]: 2.69 µM
"Cc1ccccc1C(=O)N[C@@](C)(Cc1c[nH]c2ccccc12)C(=O)NCC1(c2ccccn2)CCCCC1 [Example 47, N—{(S)-2-(1H-Indol-3-yl)-1-methyl-1-[(1-pyridin-2-yl-cyclohexylmethyl)-carbamoyl]-ethyl}-2-methyl-benzamide]",3.28,> 10,,,
"C[C@@](Cc1c[nH]c2ccccc12)(NC(=O)OCc1ccc(Cl)c(Cl)c1)C(=O)NCC1(c2ccccn2)CCCCC1 [Example 91, {(S)-2-(1H-Indol-3-yl)-1-methyl-1-[(1-pyridin-2-yl-cyclohexylmethyl)-carbamoyl]-ethyl}-carbamic acid 3,4-dichloro-benzyl ester]",,,0.202,> 10,
"C[C@@](Cc1c[nH]c2ccccc12)(NC(=O)c1ccccc1[N+](=O)[O-])C(=O)NCC1(c2ccccn2)CCCCC1 [Example 45, N—{(S)-2-(1H-Indol-3-yl)-1-methyl-1-[(1-pyridin-2-yl-cyclohexylmethyl)-carbamoyl]-ethyl}-2-nitro-benzamide]",4.58,> 10,,,
